Consider 26 molecules from patent publication US20180243317A1, “COMPOSITIONS COMPRISING A PI3K INHIBITOR AND AN HDAC INHIBITOR” (KARUS THERAPEUTICS LTD, priority 2015, published 2018).

In one assay the target is T1, Human HDAC1 (Homo sapiens, UniProt Q13547).
T1 construct: full length with C-terminal His-tag and C-terminal FLAG-tag; His-tag (C); FLAG-tag (C); made in house; host or cells: baculovirus expression system
The assay can be described thus: HDAC biochemical assay with acetylated AMC-labeled peptide substrate. The settings on record: read-out: IC50 HDAC 1. The procedure: (§1) Activity against all zinc-dependent HDACs 1 to 11 was assessed by using an acetylated AMC-labeled peptide substrate. The substrate RHKKAc was used for all class I and IIb HDACs; for HDAC8, the substrate used was RHKAcKAc. […] All assays were based on the AMC-labeled substrate and developer combination.
(§2) The protocol involved a two-step reaction: first, the substrate with the acetylated lysine side chain is incubated with a sample containing HDAC activity, to produce the deacetylated products, which are then digested in the second step by the addition of developer to produce the fluorescent signal proportional to the amount of deacetylated substrates.
Human HDAC1 (GenBank Accession No. NM_004964), full length with C-terminal His-tag and C-terminal FLAG-tag, MW=56 kDa, expressed in baculovirus expression system.
(§3) Before use, 1 mg/mL BSA and DMSO are added.
(§4) Incubate for 2 hours at 30° C.
(§5) Fluorescence background signal is then subtracted from compound data signal.
(§6) Stage 1: Deacetylation of substrate by incubation of HDAC enzymes with compounds
(§7) Stage 2: Development by addition of Developer to digest the deacetylated substrate, and generate the fluorescent color; Detection: 360/460 Ex/Em

For the next assay, the target named is T2, Recombinant human HDAC6 (Homo sapiens, UniProt Q9UBN7).
T2 construct: GST (N); made in house; host or cells: Sf9 insect cells (baculovirus)
T2 sequence (Q9UBN7 1-1215): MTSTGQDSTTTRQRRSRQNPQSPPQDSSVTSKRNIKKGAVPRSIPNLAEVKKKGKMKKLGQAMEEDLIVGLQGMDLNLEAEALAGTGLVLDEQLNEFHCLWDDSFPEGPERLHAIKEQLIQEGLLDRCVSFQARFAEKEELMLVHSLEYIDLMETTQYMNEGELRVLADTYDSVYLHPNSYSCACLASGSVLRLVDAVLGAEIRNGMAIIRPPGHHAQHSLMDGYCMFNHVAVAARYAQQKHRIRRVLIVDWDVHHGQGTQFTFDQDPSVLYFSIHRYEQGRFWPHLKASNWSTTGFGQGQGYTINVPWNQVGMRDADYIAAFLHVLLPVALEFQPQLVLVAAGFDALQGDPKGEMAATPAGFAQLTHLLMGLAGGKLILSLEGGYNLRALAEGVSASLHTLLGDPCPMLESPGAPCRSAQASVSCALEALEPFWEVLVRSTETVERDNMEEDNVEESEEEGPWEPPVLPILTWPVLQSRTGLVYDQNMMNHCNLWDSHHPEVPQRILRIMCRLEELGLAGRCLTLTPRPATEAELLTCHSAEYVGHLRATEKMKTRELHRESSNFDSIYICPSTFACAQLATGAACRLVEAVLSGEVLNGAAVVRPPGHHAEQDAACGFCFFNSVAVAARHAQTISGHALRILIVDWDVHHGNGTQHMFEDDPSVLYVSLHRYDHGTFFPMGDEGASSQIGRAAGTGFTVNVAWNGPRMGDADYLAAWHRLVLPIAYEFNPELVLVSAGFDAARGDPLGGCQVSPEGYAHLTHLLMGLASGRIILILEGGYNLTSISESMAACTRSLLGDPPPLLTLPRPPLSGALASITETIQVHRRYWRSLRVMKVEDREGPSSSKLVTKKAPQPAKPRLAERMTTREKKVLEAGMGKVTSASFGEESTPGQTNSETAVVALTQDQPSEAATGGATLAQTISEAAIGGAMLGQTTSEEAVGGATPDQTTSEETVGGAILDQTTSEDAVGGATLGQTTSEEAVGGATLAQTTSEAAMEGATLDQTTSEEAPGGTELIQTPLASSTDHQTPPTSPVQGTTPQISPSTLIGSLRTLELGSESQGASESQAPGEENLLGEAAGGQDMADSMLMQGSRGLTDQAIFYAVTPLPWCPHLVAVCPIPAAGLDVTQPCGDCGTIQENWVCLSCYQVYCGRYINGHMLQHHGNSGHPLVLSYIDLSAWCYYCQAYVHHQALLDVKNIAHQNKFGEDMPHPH
The assay is described as above. As to conditions: read-out: IC50 HDAC 6. Here is the method:
as §1, §2
Human HDAC5 (GenBank Accession No. NM_005474), full length with N-terminal GST tag, MW=150 kDa, expressed in baculovirus expression system. Recombinant human HDAC6 (GenBank Accession No. BC069243), full length, MW=180 kDa, was expressed by baculovirus in Sf9 insect cells using an N-terminal GST tag.
as §3, §4, §5, §6, §7

SMILES strings stand for the structures.

T1 sequence (Q13547 whole entry): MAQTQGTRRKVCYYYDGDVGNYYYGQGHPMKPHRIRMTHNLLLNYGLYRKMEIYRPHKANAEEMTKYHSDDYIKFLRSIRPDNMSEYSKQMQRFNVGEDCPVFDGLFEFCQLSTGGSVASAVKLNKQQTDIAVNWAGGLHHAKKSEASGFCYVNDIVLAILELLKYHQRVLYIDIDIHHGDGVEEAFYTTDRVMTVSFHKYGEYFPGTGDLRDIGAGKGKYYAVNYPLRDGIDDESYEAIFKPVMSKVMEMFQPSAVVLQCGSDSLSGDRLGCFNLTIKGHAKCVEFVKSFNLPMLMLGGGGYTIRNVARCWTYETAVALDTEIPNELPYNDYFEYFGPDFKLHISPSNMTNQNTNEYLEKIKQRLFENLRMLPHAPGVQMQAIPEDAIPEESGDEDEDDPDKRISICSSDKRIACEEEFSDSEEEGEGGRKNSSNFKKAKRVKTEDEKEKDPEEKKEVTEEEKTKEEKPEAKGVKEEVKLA

Take `COc1ccc(N(Cc2ccc(C(=O)NO)cc2)c2ccc(N3CCOCC3)cn2)nc1` [Example AA, N-Hydroxy-4-(((5-methoxypyridin-2-yl)(5-morpholinopyridin-2-yl)amino)methyl)benzamide]: the IC50 is 1000 to 10000 nM at Human HDAC1 and not above 500 nM on Recombinant human HDAC6.

Take `O=C(NO)c1ccc(CN(c2ccccn2)c2nccc3sccc23)cc1` [Example BB, N-Hydroxy-4-((pyridin-2-yl(thieno[3,2-c]pyridin-4-yl)amino)methyl)benzamide]: the figures for the IC50 on Human HDAC1 and on Recombinant human HDAC6 were 1000 to 10000 nM and not above 500 nM, respectively.

Regarding `Cc1cccc(N(Cc2ccc(C(=O)NO)cc2)c2ccc(N3CCOCC3)cn2)n1` [Example CC, N-Hydroxy-4-(((6-methylpyridin-2-yl)(5-morpholinopyridin-2-yl)amino)methyl)benzamide], the IC50 at Human HDAC1 is more than 10000 nM; at Recombinant human HDAC6 it was 500 to 1000 nM.

Turning to `O=C(NO)c1ccc(CN(c2ccncn2)c2cnccn2)cc1` [Example DD, N-Hydroxy-4-{[(pyrazin-2-yl)(pyrimidin-4-yl)amino]methyl}benzamide], the results for the IC50 at Human HDAC1 and on Recombinant human HDAC6 were 1000 to 10000 nM and not above 500 nM, respectively.

On to `O=C(NO)c1ccc(CN(c2ccncn2)c2cnccn2)c(F)c1` [Example EE], for which the IC50 on Human HDAC1 is 1000 to 10000 nM; on Recombinant human HDAC6, not above 500 nM.

For the molecule `O=C(NO)c1ccc(CN(c2ccncn2)c2cnccn2)nc1` [Example FF, N-Hydroxy-6-{[(pyrazin-2-yl)(pyrimidin-4-yl)amino]methyl}pyridine-3-carboxamide], the IC50 on Human HDAC1 was more than 10000 nM; on Recombinant human HDAC6, not above 500 nM.

`Cc1nnc(N(Cc2ccc(C(=O)NO)cc2)c2ccccn2)s1` [Example H, N-Hydroxy-4-(((5-methyl-1,3,4-thiadiazol-2-yl)(pyridin-2-yl)amino)methyl)benzamide]: the IC50 on Human HDAC1 was more than 10000 nM; on Recombinant human HDAC6, not above 500 nM.

With `O=C(NO)c1ccc(CN(c2cnccn2)c2cnccn2)c(F)c1` [Example HH, 4-{[Bis(pyrazin-2-yl)amino]methyl}-3-fluoro-N-hydroxybenzamide], the IC50 was 1000 to 10000 nM at Human HDAC1 and not above 500 nM at Recombinant human HDAC6.

Turning to `O=C(NO)c1ccc(CN(c2ccccn2)c2nc3ccccc3o2)cc1` [Example I, 4-((Benzo[d]oxazol-2-yl(pyridin-2-yl)amino)methyl)-N-hydroxybenzamide], the concentration for half-maximal inhibition (IC50) at Human HDAC1 was 1000 to 10000 nM; at Recombinant human HDAC6, not above 500 nM.

On to `O=C(NO)c1ccc(CN(c2cnccn2)c2cnccn2)nc1` [Example II, 6-{[Bis(pyrazin-2-yl)amino]methyl}-N-hydroxypyridine-3-carboxamide], for which the IC50 at Human HDAC1 is 1000 to 10000 nM; at Recombinant human HDAC6, not above 500 nM.

`Cn1c(N(Cc2ccc(C(=O)NO)cc2)c2ccccn2)nc2ccccc21` [Example J, N-Hydroxy-4-(((1-methyl-1H-benzo[d]imidazol-2-yl)(pyridin-2-yl)amino)methyl)benzamide]: the results for the IC50 at Human HDAC1 and at Recombinant human HDAC6 were more than 10000 nM and not above 500 nM, respectively.

Regarding `COc1cccnc1N(Cc1ccc(C(=O)NO)cc1)c1cnccn1` [Example JJ, N-Hydroxy-4-{[(3-methoxypyridin-2-yl)(pyrazin-2-yl)amino]methyl}benzamide], the concentration for half-maximal inhibition (IC50) on Human HDAC1 is 1000 to 10000 nM; on Recombinant human HDAC6 it was not above 500 nM.

Turning to `O=C(NO)c1ccc(CN(c2ccccn2)c2ncns2)cc1` [Example K, N-Hydroxy-4-((pyridin-2-yl(1,2,4-thiadiazol-5-yl)amino)methyl)benzamide], the figures for the IC50 at Human HDAC1 and at Recombinant human HDAC6 were more than 10000 nM and not above 500 nM, respectively.

Turning to `COc1cccnc1N(Cc1ccc(C(=O)NO)cc1F)c1cnccn1` [Example KK, 3-Fluoro-N-hydroxy-4-{[(3-methoxypyridin-2-yl)(pyrazin-2-yl)amino]methyl}benzamide], the values for the half-inhibitory concentration (IC50) at Human HDAC1 and at Recombinant human HDAC6 were 1000 to 10000 nM and not above 500 nM, respectively.

Consider `O=C(NO)c1ccc(CN(c2ccc(F)cn2)c2cnccn2)cc1` [Example L, 4-(((5-Fluoropyridin-2-yl)(pyrazin-2-yl)amino)methyl)-N-hydroxybenzamide], for which the IC50 was more than 10000 nM at Human HDAC1 and not above 500 nM at Recombinant human HDAC6.

On to `COc1cccnc1N(Cc1ccc(C(=O)NO)cn1)c1cnccn1` [Example LL, N-Hydroxy-6-{[(3-methoxypyridin-2-yl)(pyrazin-2-yl)amino]methyl}pyridine-3-carboxamide], for which the IC50 was more than 10000 nM on Human HDAC1 and not above 500 nM at Recombinant human HDAC6.

Regarding `Cc1noc(N(Cc2ccc(C(=O)NO)cc2)c2ccc(F)cn2)n1` [Example M, 4-(((5-Fluoropyridin-2-yl)(3-methyl-1,2,4-oxadiazol-5-yl)amino)methyl)-N-hydroxybenzamide], the IC50 is more than 10000 nM on Human HDAC1 and not above 500 nM on Recombinant human HDAC6.

Turning to `O=C(NO)c1ccc(CN(c2cnccn2)c2cccnn2)cc1` [Example MM, N-Hydroxy-4-{[(pyrazin-2-yl)(pyridazin-3-yl)amino]methyl}benzamide], the IC50 at Human HDAC1 is more than 10000 nM; at Recombinant human HDAC6, not above 500 nM.

Take `Cn1c(N(Cc2ccc(C(=O)NO)cc2)c2ccc(F)cn2)nc2ccccc21` [Example N, 4-(((5-Fluoropyridin-2-yl)(1-methyl-1H-benzo[d]imidazol-2-yl)amino)methyl)-N-hydroxybenzamide]: the IC50 on Human HDAC1 was more than 10000 nM; at Recombinant human HDAC6, not above 500 nM.

For `O=C(NO)c1ccc(CN(c2cnccn2)c2cccnn2)c(F)c1` [Example NN, 3-Fluoro-N-hydroxy-4-{[(pyrazin-2-yl)(pyridazin-3-yl)amino]methyl}benzamide], the figures for the IC50 at Human HDAC1 and on Recombinant human HDAC6 were more than 10000 nM and not above 500 nM, respectively.

Regarding `Cn1ccc(N(Cc2ccc(C(=O)NO)cc2)c2ccc(F)cn2)n1` [Example O, 4-(((5-Fluoropyridin-2-yl)(1-methyl-1H-pyrazol-3-yl)amino)methyl)-N-hydroxybenzamide], the IC50 at Human HDAC1 is more than 10000 nM; on Recombinant human HDAC6, not above 500 nM.

`Cc1nsc(N(Cc2ccc(C(=O)NO)cc2)c2cnccn2)n1` [Example OO, N-Hydroxy-4-{[(3-methyl-1,2,4-thiadiazol-5-yl)(pyrazin-2-yl)amino]methyl}benzamide]: the IC50 was 1000 to 10000 nM at Human HDAC1 and not above 500 nM at Recombinant human HDAC6.

For `O=C(NO)c1ccc(CN(c2ccc(F)cn2)c2nc3ccccc3o2)cc1` [Example P, 4-((Benzo[d]oxazol-2-yl(5-fluoropyridin-2-yl)amino)methyl)-N-hydroxybenzamide], the IC50 at Human HDAC1 was more than 10000 nM; at Recombinant human HDAC6, not above 500 nM.

With `COc1ccnc(N(Cc2ccc(C(=O)NO)cc2)c2cnccn2)c1` [Example PP, N-Hydroxy-4-{[(4-methoxypyridin-2-yl)(pyrazin-2-yl)amino]methyl}benzamide], the IC50 on Human HDAC1 was 1000 to 10000 nM; at Recombinant human HDAC6, not above 500 nM.

On to `Cn1ccc(N(Cc2ccc(C(=O)NO)cc2)c2cc(-c3ccc(F)cc3)ccn2)n1` [Example Q, 4-(((4-(4-Fluorophenyl)pyridin-2-yl)(1-methyl-1H-pyrazol-3-yl)amino)methyl)-N-hydroxybenzamide], for which the IC50 at Human HDAC1 is 1000 to 10000 nM; at Recombinant human HDAC6, not above 500 nM.

On to `O=C(NO)c1ccc(CN(c2ccccn2)c2nc3ccccc3s2)cc1` [Example V, 4-((Benzo[d]thiazol-2-yl(pyridin-2-yl)amino)methyl)-N-hydroxybenzamide], for which the IC50 at Recombinant human HDAC6 is not above 500 nM.
